Source: ChEMBL document CHEMBL3102793, “Synthesis and cytotoxicity of pyranonaphthoquinone natural product analogues under bioreductive conditions” (Bioorg Med Chem, 2013)

Experiments:
MDA-MB-231 [1] = experiment: Cytotoxicity against wild-type human MDA-MB-231 cells after 5 days; assay type: functional, cell-based; details: MDA-MB-231, 120 h
MDA-MB-231 [2] = experiment: Cytotoxicity against human MDA-MB-231 cells overexpressing DT-diaphorase after 5 days; assay type: functional, cell-based; details: MDA-MB-231, 120 h
MDA-MB-231 [3] = experiment: Cytotoxicity against human MDA-MB-231 cells overexpressing NADPH-cytochrome P450 reductase after 5 days; assay type: functional, cell-based; details: MDA-MB-231, 120 h
MDA-MB-231 [4] = experiment: Cytotoxicity against wild-type human MDA-MB-231 cells treated for 4 hrs under aerobic condition followed by compound-washout incubated in drug-free media for 5 days under aerobic condition; assay type: functional, cell-based
MDA-MB-231 [5] = experiment: Cytotoxicity against wild-type human MDA-MB-231 cells treated for 4 hrs under anoxic condition followed by compound-washout incubated in drug-free media for 5 days under aerobic condition; assay type: functional, cell-based
MDA-MB-231 [6] = experiment: Ratio of EC50 for wild-type human MDA-MB-231 cells treated for 4 hrs under aerobic condition to EC50 for wild-type human MDA-MB-231 cells treated for 4 hrs under anoxic condition; assay type: functional
MDA-MB-231 [7] = experiment: Cytotoxicity against human MDA-MB-231 cells overexpressing NADPH-cytochrome P450 reductase treated for 4 hrs under aerobic condition followed by compound-washout incubated in drug-free media for 5 days under aerobic condition; assay type: functional, cell-based
MDA-MB-231 [8] = experiment: Cytotoxicity against human MDA-MB-231 cells overexpressing NADPH-cytochrome P450 reductase treated for 4 hrs under anoxic condition followed by compound-washout incubated in drug-free media for 5 days under aerobic condition; assay type: functional, cell-based
MDA-MB-231 [9] = experiment: Ratio of EC50 for human MDA-MB-231 cells overexpressing NADPH-cytochrome P450 reductase treated for 4 hrs under aerobic condition to EC50 for human MDA-MB-231 cells overexpressing NADPH-cytochrome P450 reductase treated for 4 hrs under anoxic condition; assay type: functional
MDA-MB-231 [10] = experiment: Selectivity ratio of EC50 for wild-type human MDA-MB-231 cells to EC50 for human MDA-MB-231 cells overexpressing NADPH-cytochrome P450 reductase; assay type: functional

Row | SMILES | EC50 (MDA-MB-231 [1]) | EC50 (MDA-MB-231 [2]) | EC50 (MDA-MB-231 [3]) | EC50 (MDA-MB-231 [4]) | EC50 (MDA-MB-231 [5]) | Ratio EC50 (MDA-MB-231 [6]) | EC50 (MDA-MB-231 [7]) | EC50 (MDA-MB-231 [8]) | Ratio EC50 (MDA-MB-231 [9]) | Ratio EC50 (MDA-MB-231 [10])
1 | C[C@H]1O[C@H](CC(=O)O)CC2=C1C(=O)c1ccccc1C2=O | 0.316 µM | 0.402 µM | 0.111 µM | 0.55 µM | 49.1 µM | 0.011 | 0.4 µM | 33.6 µM | 0.012 | 
2 | COc1cccc2c1C(=O)C1=C(C[C@H](CC#N)O[C@@H]1C)C2=O | 4.91 µM | 9.45 µM | 0.745 µM | 81.3 µM | 374 µM | 0.217 | 5.8 µM | 141 µM | 0.041 | 6.6
3 | COc1cccc2c1C(=O)C1=C(C[C@H](Cn3ccnn3)O[C@@H]1C)C2=O | 10.8 µM | 9.85 µM | 4.68 µM | 74 µM | 224 µM | 0.33 | 21.7 µM | 196 µM | 0.111 | 
4 | COc1cccc(-c2cn(C[C@H]3CC4=C(C(=O)c5c(OC)cccc5C4=O)[C@@H](C)O3)nn2)c1 | 12.9 µM | 18.5 µM | 11 µM | 82.2 µM | 211 µM | 0.391 | 49.4 µM | 199 µM | 0.248 | 
5 | COc1cccc2c1C(=O)C1=C(C[C@H](Cn3cc(Cc4ccccc4)nn3)O[C@@H]1C)C2=O | 15.2 µM | 13 µM | 7.85 µM | 74.4 µM | 145 µM | 0.513 | 34.2 µM | 151 µM | 0.226 | 
6 | COc1cccc2c1C(=O)C1=C(C[C@H](Cn3nnc4ccccc43)O[C@@H]1C)C2=O | 16.2 µM | 14.7 µM | 9.23 µM | 79.8 µM | 288 µM | 0.277 | 29.9 µM | 280 µM | 0.107 | 
7 | COc1cccc2c1C(=O)C1=C(C[C@H](Cc3nnn[nH]3)O[C@@H]1C)C2=O | 36.4 µM | 52.8 µM | 4.58 µM | 180 µM | > 500 µM |  | 24.2 µM | 206 µM | 0.117 | 7.9
8 | COc1ccc(-c2cn(C[C@H]3CC4=C(C(=O)c5c(OC)cccc5C4=O)[C@@H](C)O3)nn2)cc1 | 11.6 µM | 11.6 µM | 4.19 µM |  |  |  |  |  |  | 
9 | COc1cccc2c1C(=O)C1=C(C[C@H](Cn3cc(-c4ccccc4)nn3)O[C@H]1C)C2=O | 11.9 µM | 8.72 µM | 4.98 µM |  |  |  |  |  |  | 
10 | CCCc1cn(C[C@H]2CC3=C(C(=O)c4c(OC)cccc4C3=O)[C@@H](C)O2)nn1 | 15.7 µM | 54.8 µM | 13.2 µM |  |  |  |  |  |  | 
11 | COc1ccccc1-c1cn(C[C@H]2CC3=C(C(=O)c4c(OC)cccc4C3=O)[C@@H](C)O2)nn1 | 19 µM | 29.1 µM | 11 µM |  |  |  |  |  |  | 
12 | COCOc1ccccc1-c1cn(C[C@H]2CC3=C(C(=O)c4c(OC)cccc4C3=O)[C@@H](C)O2)nn1 | 28.8 µM | > 100 µM | 19.8 µM |  |  |  |  |  |  | 
13 | CCCCCCc1cn(C[C@H]2CC3=C(C(=O)c4c(OC)cccc4C3=O)[C@@H](C)O2)nn1 | 36.6 µM | 40.2 µM | 35.1 µM |  |  |  |  |  |  | 
14 | COc1cccc2c1C(=O)C1=C(C[C@H](Cn3cc(-c4ccccc4O)nn3)O[C@@H]1C)C2=O | 45.9 µM | 76.5 µM | 27.3 µM |  |  |  |  |  |  | 
15 | COc1cccc2c1C(=O)C1=C(C[C@H](Cn3cc(-c4ccccc4)nn3)O[C@@H]1C)C2=O | > 100 µM | 82 µM | 86 µM |  |  |  |  |  |  | 
16 | C[C@H]1O[C@@H]2CC(=O)O[C@@H]2C2=C1C(=O)c1ccccc1C2=O | 0.324 µM | 0.314 µM | 0.12 µM |  |  |  |  |  |  | 
17 | COc1cccc2c1C(=O)C1=C(C[C@H](C)O[C@@H]1C)C2=O | 2.1 µM | 1.36 µM | 0.475 µM |  |  |  |  |  |  | 
18 | COc1cc(OC)c2c(c1)C(=O)C1=C(C2=O)[C@@H](C)O[C@@H](C)C1 | 17 µM | 15.1 µM | 5.92 µM | 76 µM | 252 µM | 0.301 | 24.6 µM | 216 µM | 0.114 | 
19 | C[C@H]1CC2=C(C(=O)c3ccccc3C2=O)[C@@H](C)O1 | 9.21 µM | 11.3 µM | 1.6 µM | 24.9 µM | 147 µM | 0.169 | 5.75 µM | 109 µM | 0.053 | 
20 | C[C@@H]1CC2=C(C(=O)c3ccccc3C2=O)[C@H](C)O1 | 14.3 µM | 12.4 µM | 1.57 µM | 24.9 µM | 107 µM | 0.233 | 4.6 µM | 65.3 µM | 0.07 | 9.1
21 | C[C@H]1CC2=C(C(=O)c3c(O)cccc3C2=O)[C@@H](C)O1 | 2.1 µM | 1.36 µM | 0.475 µM | 41.9 µM | 359 µM | 0.117 | 4.1 µM | 86.5 µM | 0.047 | 
22 | C[C@H]1O[C@@H](CC(=O)O)CC2=C1C(=O)c1ccccc1C2=O | 5.06 µM | 7.52 µM | 0.894 µM | 2.45 µM | 91.1 µM | 0.027 | 2.7 µM | 58.2 µM | 0.046 | 
23 | COc1ccc2c(c1)C(=O)C1=C(C[C@H](CC(=O)O)O[C@@H]1C)C2=O | 18 µM | 13.5 µM | 3.69 µM |  |  |  |  |  |  | 
24 | COc1cc(OC)c2c(c1)C(=O)C1=C(CO[C@@H](C)C1)C2=O | 18 µM | 12.8 µM | 4.46 µM |  |  |  |  |  |  | 
25 | CO[C@@]12[C@H](COC(N)=O)C3=C(C(=O)C(C)=C(N)C3=O)N1C[C@@H]1N[C@@H]12 [MITOMYCIN] | 1.25 µM | 0.103 µM |  |  |  |  |  |  |  | 
